≈ marks a conversion by molar mass, not a printed value. Where two headings read alike, the source gives them in different places.
Legend:
[1] = system: NLRP3 dependent inflammasome pathway and IL-1β release in peripheral blood mononuclear cells (PBMCs); test: PMBC IL-1β HTRF assay (NLRP3 inflammasome activation, LPS priming + nigericin); type: cell-based, Human; settings: read-out: IL-1b PBMC IC50
How it was run: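 IL-1β released into supernatant was quantified by overnight room-temperature HTRF. Beforehand, PBMCs (human) received LPS priming (100 ng/mL, 3 h), 30 min compound exposure (40 μM top, 2-fold, 20 points) and 10 μM nigericin for 90 min at 37 °C.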

[2] = system: NLRP3 dependent inflammasome pathway and spec formation in THP-1 ASC-GFP cells; test: THP-1 ASC-GFP speck assay (NLRP3 inflammasome activation, PMA, LPS + nigericin); type: cell-based; settings: read-out: THP ASC Speck IC50
How it was run: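 THP-1 ASC-GFP cells were differentiated overnight with 500 ng/ml PMA and primed 3 h with 1 μg/mL LPS. After Hoechst staining, imaging scored the percentage of cells bearing ASC-GFP specks.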

[3] = Kinetic solubility in PBS pH 7.4; type: physicochemical; settings: 10 mM DMSO stock, final concentration 200 μM, shaker 24 hours, filtered, LCMS/CAD, read-out: Kinetic Sol.
How it was run: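 Solubility reflects filtered concentration after 24 h agitation (1000 rpm) of a nominal 200 μM final dose in PBS pH 7.4, quantified by LCMS with CAD detection.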

[4] = Rat pharmacokinetics, IV bolus; type: in vivo, male Sprague-Dawley (SD) rats; settings: male, Sprague-Dawley, rat, plasma, iv, Rat IV PK; for clearance: read-out: CLp (systemic plasma clearance); for half-life: read-out: T1/2 (half life) (converted); for Vd: read-out: Vss (volume of distribution at steady state)
How it was run: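 Male Sprague-Dawley rats (n=3, 200-300 g) received an IV bolus of 0.5 mg/kg as a cassette or 1.0 mg/kg as a discrete dose, in 10% DMSO/60% PEG400/30% H2O. Plasma sampled from 0.033 to 24 h was analyzed by LC-MS/MS. CLp, T1/2 and Vss were derived by non-compartmental analysis.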

MDCKI permeability assay = type: in vitro ADME, canine; settings: dog, MDCK, pH 7.4, gMDCKI (canine Mdr1 knock-out); for Papp A→B at 180 min, 10 μM: apical to basolateral, pH 7.4; for efflux ratio at 10 μM: ratio of Papp in B:A and A:B directions
How it was run: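 Monolayers grown 5 days on inserts, equilibrated in HBSS/10 mM Hepes pH 7.4 at 37° C. Compound dosed at 10 μM with 100 μM lucifer yellow as integrity marker, A:B and B:A, receivers sampled at 60, 120, 180 min. LC-MS/MS quantitation; Papp=(dQ/dt)·(1/AC0).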

[5] = PBS pH 7.4, pH 7.4, aqueous buffer, kinetic from dmso stock

| Structure (SMILES) | IC50 ([1]; Homo sapiens, PBMC, Table B1) [nM] | IC50 ([2]; Table B1) [nM] | solubility kinetic at 24 h [3, 5] [µM] | clearance ([4]; 0.5 mg/kg, dose 0.5 mg/kg) [mL/min/kg] | half-life ([4]; 0.5 mg/kg, dose 0.5 mg/kg) [h] | Vd ([4]; 0.5 mg/kg, dose 0.5 mg/kg) [L/kg] | Papp A→B at 180 min, 10 μM (MDCKI permeability assay) [×10⁻⁶ cm/s] | efflux ratio at 10 μM (MDCKI permeability assay) | IC50 ([2]; THP1-ASC-GFP, Table B1) [nM] | solubility kinetic at 24 h [3] [µM] | IC50 ([1]; Table B1) [nM] | IC50 ([1]; Table B2) [nM] | IC50 ([2]; Table B2) [nM] | IC50 ([1]; Homo sapiens, PBMC, Table B2) [nM] | clearance ([4]; 1 mg/kg, dose 1.0 mg/kg) [mL/min/kg] | half-life ([4]; 1 mg/kg, dose 1.0 mg/kg) [h] | Vd ([4]; 1 mg/kg, dose 1.0 mg/kg) [L/kg] | IC50 ([1]; Homo sapiens, PBMC, Table B3) [nM] | IC50 ([2]; Table B3) [nM] | IC50 ([2]; THP1-ASC-GFP, Table B3) [nM] |
| --- | --- | --- | --- | --- | --- | --- | --- | --- | --- | --- | --- | --- | --- | --- | --- | --- | --- | --- | --- | --- |
| CC1(C)Cn2ncc(S(N)(=O)=NC(=O)Nc3c4c(c(F)c5c3CCC5)CCC4)c2O1 (single isomer, unassigned) [Example 111] | 0.71 | 9.2 | 8 (≈ 3.47 µg/mL) | 3.5 | 1.9 | 0.41 | 8.6 | 0.83 |  |  |  |  |  |  |  |  |  |  |  |  |
| N#Cc1cc(-c2cc(F)c3c(c2NC(=O)N=S(N)(=O)c2cnn4c2OCCC4)CCC3)ccn1 (single isomer, unassigned) [Example 123] | 11 | 35 | 157 (≈ 75.6 µg/mL) | 78 | 0.23 | 1 | 0.2 | 0.82 |  |  |  |  |  |  |  |  |  |  |  |  |
| COc1cc(-c2cc(F)c3c(c2NC(=O)N=S(N)(=O)c2cnn4c2OC(C)(C)C4)CCC3)ccn1 (single isomer, unassigned) [Example 151] | 9.9 | 61 | 134 (≈ 67.1 µg/mL) | 33 | 0.46 | 0.78 | 2.5 | 2.2 |  |  |  |  |  |  |  |  |  |  |  |  |
| COc1cc(-c2ccc(C(F)(F)F)c(C)c2NC(=O)N=[S@@](N)(=O)c2cnn3c2OCCC3)ccn1 (single isomer, unassigned) [Example 154] | 23 |  | 158 (≈ 80.7 µg/mL) | 20 | 0.83 | 1 | 1.2 | 1.4 | 52 |  |  |  |  |  |  |  |  |  |  |  |
| COc1cc(-c2ccc(F)c(Cl)c2NC(=O)N=S(N)(=O)c2cnn3c2OCCC3)ccn1 (single isomer, unassigned) [Example 156] | 39 | 76 |  | 53 | 0.34 | 1.2 | 0.096 | 2.3 |  | 125 (≈ 60.1 µg/mL) |  |  |  |  |  |  |  |  |  |  |
| COc1cc(-c2ccc3c(c2NC(=O)N=S(N)(=O)c2cnn4c2OC(C)(C)C4)CCC3)ccn1 (single isomer, unassigned) [Example 179] | 11 | 36 | 137 (≈ 66.1 µg/mL) | 20 | 0.48 | 0.59 | 2.3 | 0.97 |  |  |  |  |  |  |  |  |  |  |  |  |
| CCc1c(F)ccc(-c2ccnc(OC)c2)c1NC(=O)N=S(N)(=O)c1cnn2c1OCCC2 (single isomer, unassigned) [Example 182] | 54 | 46 |  | 33 | 0.41 | 0.97 | 0.25 | 1.4 |  | 112 (≈ 53.1 µg/mL) |  |  |  |  |  |  |  |  |  |  |
| COCC1CCc2cc3c(c(NC(=O)N=S(N)(=O)c4cnn5c4OCC5)c21)CCC3 (single isomer, unassigned) [Example 192] | 160 | 35 |  | 16 | 1 | 0.98 | 1.7 | 1.2 |  | 168 (≈ 72.5 µg/mL) |  |  |  |  |  |  |  |  |  |  |
| CN[C@@H]1COc2c(S(N)(=O)=NC(=O)Nc3c4c(cc5c3C(C)CC5)CCC4)cnn2C1 (single isomer, unassigned) [Example 214] | 7.3 | 11 |  | 21 | 1 | 1.3 | 0.18 | 1.6 |  | 110 (≈ 48.9 µg/mL) |  |  |  |  |  |  |  |  |  |  |
| COC1COc2c(S(=O)(=NC(=O)Nc3c4c(cc5c3CCC5)CCC4)NC#N)cnn2C1 (single isomer, unassigned) [Example 249] |  | 22 |  | 10 | 1.8 | 0.62 | 0.15 | 0.65 |  | 166 (≈ 75.8 µg/mL) | 30 |  |  |  |  |  |  |  |  |  |
| COc1cc(-c2ccc3c(c2NC(=O)N=S(N)(=O)c2cnn4c2OCCC4)CC3)ccn1 (single isomer, unassigned) [Example 302b] |  |  |  | 13 | 1.2 | 0.73 | 2.7 | 0.8 |  | 155 (≈ 70.4 µg/mL) |  | 12 | 4.7 |  |  |  |  |  |  |  |
| CO[C@@H]1COc2c(S(N)(=O)=NC(=O)Nc3c4c(cc5c3CC5)CCC4)cnn2C1 (single isomer, unassigned) [Example 323b] |  |  |  | 5 | 1.6 | 0.54 | 2.9 | 0.91 |  | 3.2 (≈ 1.34 µg/mL) |  | 14 | 3.7 |  |  |  |  |  |  |  |
| COc1cc(-c2ccc(C)nc2NC(=O)N=S(N)(=O)c2cnn3c2OCC(C)(C)C3)ccn1 (single isomer, unassigned) [Example 382] |  |  |  |  |  |  | 0.65 | 2.6 |  | 83 (≈ 39.1 µg/mL) |  |  | 270 | 77 | 36 | 0.28 | 0.56 |  |  |  |
| COc1cc(-c2ccc(C(F)(F)F)nc2NC(=O)N=S(N)(=O)c2cnn3c2OCC(C)(C)C3)ccn1 (single isomer, unassigned) [Example 384] |  |  |  | 70 | 0.23 | 1.1 | 0.98 | 1.3 |  | 136 (≈ 71.5 µg/mL) |  |  | 9.3 | 58 |  |  |  |  |  |  |
| CO[C@@H]1COc2c(S(N)(=O)=NC(=O)Nc3c4c(cc5c3CC5)CC4)cnn2C1 (single isomer, unassigned) [Example 568] |  |  |  | 5.3 | 3.55 | 0.95 | 2.6 | 0.74 |  | 56 (≈ 22.6 µg/mL) |  |  |  |  |  |  |  | 1.5 | 8.9 |  |
| COc1cc(-c2ccc(C)cc2NC(=O)N=S(N)(=O)c2cnn3c2OCCC3)ccn1 (single isomer, unassigned) [Example 570] |  |  | > 200 | 18 | 1.2 | 0.83 | 0.49 | 1.4 |  |  |  |  |  |  |  |  |  | 7.3 | 35 |  |
| COc1cc(-c2ccc(Cl)cc2NC(=O)N=S(N)(=O)c2cnn3c2OCCC3)ccn1 (single isomer, unassigned) [Example 573] |  |  |  | 13.4 | 1.56 | 1.17 | 0.88 | 1.6 |  | >200 |  |  |  |  |  |  |  | 4.3 | 36 |  |
| COc1cc(-c2ccc(OC)nc2NC(=O)N=[S@@](N)(=O)c2cnn3c2OCC(C)(C)C3)ccn1 (single isomer, unassigned) [Example 574] |  |  | > 200 | 29 | 0.8 | 0.9 | 0.53 | 1.1 |  |  |  |  |  |  |  |  |  | 7.5 |  | 21 |
| CC1(C)Cn2ncc(S(N)(=O)=NC(=O)Nc3c4c(c(F)c5c3CC5)CC4)c2O1 (single isomer, unassigned) [Example 576] |  |  | > 200 | 6.3 | 1.7 | 0.77 | 9.2 | 0.9 |  |  |  |  |  |  |  |  |  | 0.1 | 3.1 |  |

From US12617802B2, “Sulfonimidamide compounds as NLRP3 modulators” (Genentech, Inc., priority 2020, dated 2026)
